Laboratory results from PubChem BioAssay (NCI).
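48-hour exposure; five concentrations; linearly interpolated endpoints. TGI marks complete inhibition of growth.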

How the values were obtained:
Assay in all cases: DTP human tumour cell line panel, 48 h
K-562 leukemia = test system: K-562 leukemia
HOP-92 NSCLC = test system: HOP-92 NSCLC
SNB-19 CNS = test system: SNB-19 CNS
COLO 205 colon = test system: COLO 205 colon
IGROV1 ovarian = test system: IGROV1 ovarian
SF-295 CNS = test system: SF-295 CNS
MDA-MB-231 breast = test system: MDA-MB-231 breast
HCC-2998 colon = test system: HCC-2998 colon
MALME-3M melanoma = test system: MALME-3M melanoma
SF-539 CNS = test system: SF-539 CNS
SK-MEL-28 melanoma = test system: SK-MEL-28 melanoma
TK-10 renal = test system: TK-10 renal
SN12C renal = test system: SN12C renal
SW-620 colon = test system: SW-620 colon
KM12 colon = test system: KM12 colon
UO-31 renal = test system: UO-31 renal
OVCAR-5 ovarian = test system: OVCAR-5 ovarian
HL-60(TB) leukemia = test system: HL-60(TB) leukemia
OVCAR-4 ovarian = test system: OVCAR-4 ovarian
HS 578T breast = test system: HS 578T breast
NCI-H226 lung = test system: NCI-H226 lung
SK-OV-3 ovarian = test system: SK-OV-3 ovarian
SF-268 CNS = test system: SF-268 CNS
HOP-62 NSCLC = test system: HOP-62 NSCLC
UACC-62 melanoma = test system: UACC-62 melanoma
OVCAR-8 ovarian = test system: OVCAR-8 ovarian
NCI/ADR-RES ovarian = test system: NCI/ADR-RES ovarian
NCI-H460 lung = test system: NCI-H460 lung
NCI-H522 lung = test system: NCI-H522 lung
DU-145 prostate = test system: DU-145 prostate
PC-3 prostate = test system: PC-3 prostate
LOX IMVI melanoma = test system: LOX IMVI melanoma
CAKI-1 renal = test system: CAKI-1 renal
A498 renal = test system: A498 renal
SK-MEL-2 melanoma = test system: SK-MEL-2 melanoma
786-0 renal = test system: 786-0 renal
MOLT-4 leukemia = test system: MOLT-4 leukemia
A549 NSCLC = test system: A549 NSCLC
HCT-116 colon = test system: HCT-116 colon
BT-549 breast = test system: BT-549 breast
EKVX NSCLC = test system: EKVX NSCLC
HT29 colon = test system: HT29 colon
T-47D breast = test system: T-47D breast
SNB-75 CNS = test system: SNB-75 CNS
U251 CNS = test system: U251 CNS
SK-MEL-5 melanoma = test system: SK-MEL-5 melanoma
UACC-257 melanoma = test system: UACC-257 melanoma
OVCAR-3 ovarian = test system: OVCAR-3 ovarian
RXF 393 renal = test system: RXF 393 renal
MCF7 breast = test system: MCF7 breast
ACHN renal = test system: ACHN renal
NCI-H23 lung = test system: NCI-H23 lung
HCT-15 colon = test system: HCT-15 colon
M14 melanoma = test system: M14 melanoma
MDA-N = test system: MDA-N
RPMI-8226 leukemia = test system: RPMI-8226 leukemia
SR leukemia = test system: SR leukemia
MDA-MB-435 = test system: MDA-MB-435
CCRF-CEM leukemia = test system: CCRF-CEM leukemia

`C=C[C@]1(C)C[C@@H](OC(=O)CO)[C@@]2(C)[C@H](C)CC[C@]3(CCC(=O)[C@H]32)[C@@H](C)[C@@H]1O` gave a TGI (K-562 leukemia) of over 75.1 µM, a TGI (HOP-92 NSCLC) of over 100 µM and a TGI (SNB-19 CNS) of over 100 µM. For the same compound, the TGI (COLO 205 colon) was over 100 µM, the TGI (IGROV1 ovarian) was over 100 µM and the TGI (SF-295 CNS) was over 100 µM. It also gave a TGI (MDA-MB-231 breast) of over 100 µM, a TGI (HCC-2998 colon) of over 100 µM and a TGI (MALME-3M melanoma) of over 100 µM. It also gave a TGI (SF-539 CNS) of over 100 µM, a TGI (SK-MEL-28 melanoma) of over 100 µM and a TGI (TK-10 renal) of over 100 µM. For the same compound, the TGI (SN12C renal) was over 100 µM, the TGI (SW-620 colon) was over 100 µM and the TGI (KM12 colon) was over 100 µM. The TGI (UO-31 renal) was over 100 µM, the TGI (OVCAR-5 ovarian) was over 100 µM and the TGI (HL-60(TB) leukemia) was over 100 µM. The TGI (OVCAR-4 ovarian) was over 100 µM, the TGI (HS 578T breast) was 97 µM and the TGI (NCI-H226 lung) was over 100 µM. It also gave a TGI (SK-OV-3 ovarian) of over 100 µM, a TGI (SF-268 CNS) of over 100 µM and a TGI (HOP-62 NSCLC) of over 100 µM. For the same compound, the TGI (UACC-62 melanoma) was over 50.3 µM, the TGI (OVCAR-8 ovarian) was over 100 µM and the TGI (NCI/ADR-RES ovarian) was over 100 µM. For the same compound, the TGI (NCI-H460 lung) was over 100 µM, the TGI (NCI-H522 lung) was over 100 µM and the TGI (DU-145 prostate) was over 100 µM. The TGI (PC-3 prostate) was over 100 µM, the TGI (LOX IMVI melanoma) was over 31.6 µM and the TGI (CAKI-1 renal) was over 100 µM. It also gave a TGI (A498 renal) of over 78.2 µM, a TGI (SK-MEL-2 melanoma) of over 100 µM and a TGI (786-0 renal) of over 100 µM. For the same compound, the TGI (MOLT-4 leukemia) was over 75.5 µM, the TGI (A549 NSCLC) was over 100 µM and the TGI (HCT-116 colon) was over 100 µM. It also gave a TGI (BT-549 breast) of over 100 µM, a TGI (EKVX NSCLC) of over 100 µM and a TGI (HT29 colon) of over 100 µM. For the same compound, the TGI (T-47D breast) was over 100 µM, the TGI (SNB-75 CNS) was over 100 µM and the TGI (U251 CNS) was over 100 µM. The TGI (SK-MEL-5 melanoma) was over 100 µM, the TGI (UACC-257 melanoma) was over 100 µM and the TGI (OVCAR-3 ovarian) was over 100 µM. For the same compound, the TGI (RXF 393 renal) was over 100 µM, the TGI (MCF7 breast) was over 100 µM and the TGI (ACHN renal) was over 100 µM. It also gave a TGI (NCI-H23 lung) of over 100 µM, a TGI (HCT-15 colon) of over 100 µM and a TGI (M14 melanoma) of over 100 µM. The TGI (MDA-N) was over 100 µM, the TGI (RPMI-8226 leukemia) was over 100 µM and the TGI (SR leukemia) was over 74.2 µM. For the same compound, the TGI (MDA-MB-435) was over 100 µM.
`CCOC(=O)NC(C(F)(F)F)(C(F)(F)F)P(=O)(OCC(C)C)OCC(C)C` was tested, and the TGI (K-562 leukemia) was over 100 µM, the TGI (HOP-92 NSCLC) was 36.7 µM and the TGI (SNB-19 CNS) was over 100 µM. For the same compound, the TGI (COLO 205 colon) was 31 µM, the TGI (IGROV1 ovarian) was 51.5 µM and the TGI (CCRF-CEM leukemia) was over 100 µM. It also gave a TGI (SF-295 CNS) of over 100 µM, a TGI (MDA-MB-231 breast) of 39 µM and a TGI (HCC-2998 colon) of over 100 µM. For the same compound, the TGI (MALME-3M melanoma) was 60.7 µM, the TGI (SF-539 CNS) was 48.8 µM and the TGI (SK-MEL-28 melanoma) was 54.2 µM. It also gave a TGI (TK-10 renal) of 65.8 µM, a TGI (SN12C renal) of 49 µM and a TGI (SW-620 colon) of 17.2 µM. For the same compound, the TGI (KM12 colon) was over 100 µM, the TGI (UO-31 renal) was 30.3 µM and the TGI (OVCAR-5 ovarian) was 58.7 µM. It also gave a TGI (HL-60(TB) leukemia) of 22.4 µM, a TGI (HS 578T breast) of 56.5 µM and a TGI (NCI-H226 lung) of 32.6 µM. It also gave a TGI (SK-OV-3 ovarian) of 66.9 µM, a TGI (SF-268 CNS) of 57.3 µM and a TGI (HOP-62 NSCLC) of over 100 µM. It also gave a TGI (UACC-62 melanoma) of 29.4 µM, a TGI (OVCAR-8 ovarian) of 31.4 µM and a TGI (NCI/ADR-RES ovarian) of 47 µM. The TGI (NCI-H460 lung) was over 100 µM, the TGI (NCI-H522 lung) was 11.6 µM and the TGI (DU-145 prostate) was over 100 µM. The TGI (PC-3 prostate) was over 100 µM, the TGI (LOX IMVI melanoma) was 20.6 µM and the TGI (CAKI-1 renal) was over 100 µM. It also gave a TGI (A498 renal) of over 100 µM, a TGI (SK-MEL-2 melanoma) of 43 µM and a TGI (A549 NSCLC) of over 100 µM. For the same compound, the TGI (HCT-116 colon) was 16.6 µM, the TGI (BT-549 breast) was 29 µM and the TGI (EKVX NSCLC) was 74.6 µM. The TGI (HT29 colon) was 33.8 µM, the TGI (T-47D breast) was over 100 µM and the TGI (SNB-75 CNS) was 97.1 µM. The TGI (U251 CNS) was over 100 µM, the TGI (SK-MEL-5 melanoma) was 24.9 µM and the TGI (OVCAR-3 ovarian) was 64 µM. For the same compound, the TGI (RXF 393 renal) was 24.5 µM, the TGI (MCF7 breast) was 21.1 µM and the TGI (ACHN renal) was 52.8 µM. For the same compound, the TGI (HCT-15 colon) was 17.1 µM, the TGI (M14 melanoma) was 26.1 µM and the TGI (MDA-N) was 27.1 µM. The TGI (RPMI-8226 leukemia) was over 100 µM, the TGI (SR leukemia) was over 100 µM and the TGI (MDA-MB-435) was over 100 µM.
With `COc1ccc2[nH]c(Cl)c(/C=C3/C(=O)N(c4ccccc4)c4ccccc43)c2c1` the TGI (K-562 leukemia) was 26.4 µM, the TGI (HOP-92 NSCLC) was over 100 µM and the TGI (SNB-19 CNS) was 88.5 µM. The TGI (COLO 205 colon) was 5.89 µM, the TGI (IGROV1 ovarian) was over 100 µM and the TGI (CCRF-CEM leukemia) was 63.4 µM. For the same compound, the TGI (SF-295 CNS) was 7.33 µM, the TGI (MDA-MB-231 breast) was 65.3 µM and the TGI (HCC-2998 colon) was 17.6 µM. It also gave a TGI (MALME-3M melanoma) of 36.2 µM, a TGI (SF-539 CNS) of 6.63 µM and a TGI (SK-MEL-28 melanoma) of 52 µM. The TGI (TK-10 renal) was 36.5 µM, the TGI (SN12C renal) was 18.9 µM and the TGI (SW-620 colon) was 24.6 µM. For the same compound, the TGI (KM12 colon) was over 100 µM, the TGI (UO-31 renal) was 93.1 µM and the TGI (OVCAR-5 ovarian) was 94.8 µM. It also gave a TGI (HL-60(TB) leukemia) of 9.02 µM, a TGI (HS 578T breast) of 39.6 µM and a TGI (SK-OV-3 ovarian) of 10.8 µM. The TGI (SF-268 CNS) was 23.3 µM, the TGI (HOP-62 NSCLC) was 23.4 µM and the TGI (UACC-62 melanoma) was 43.4 µM. The TGI (OVCAR-8 ovarian) was 28.8 µM, the TGI (NCI/ADR-RES ovarian) was 6.45 µM and the TGI (NCI-H460 lung) was 16.3 µM. For the same compound, the TGI (NCI-H522 lung) was 17.9 µM, the TGI (DU-145 prostate) was 76.4 µM and the TGI (PC-3 prostate) was over 100 µM. For the same compound, the TGI (LOX IMVI melanoma) was 14.3 µM, the TGI (CAKI-1 renal) was over 100 µM and the TGI (A498 renal) was over 100 µM. It also gave a TGI (SK-MEL-2 melanoma) of 10.9 µM, a TGI (786-0 renal) of 20.9 µM and a TGI (MOLT-4 leukemia) of over 100 µM. The TGI (A549 NSCLC) was over 100 µM, the TGI (HCT-116 colon) was 18.6 µM and the TGI (BT-549 breast) was 11.3 µM. For the same compound, the TGI (EKVX NSCLC) was 69.5 µM, the TGI (HT29 colon) was 45.8 µM and the TGI (T-47D breast) was 21.4 µM. The TGI (SNB-75 CNS) was 49.1 µM, the TGI (U251 CNS) was 30.7 µM and the TGI (SK-MEL-5 melanoma) was 5.97 µM. For the same compound, the TGI (UACC-257 melanoma) was 24.3 µM, the TGI (OVCAR-3 ovarian) was 7.71 µM and the TGI (RXF 393 renal) was 47.3 µM. For the same compound, the TGI (MCF7 breast) was over 100 µM, the TGI (ACHN renal) was over 100 µM and the TGI (NCI-H23 lung) was 19.5 µM. For the same compound, the TGI (HCT-15 colon) was 13 µM, the TGI (M14 melanoma) was 12.9 µM and the TGI (MDA-N) was 3.53 µM. For the same compound, the TGI (RPMI-8226 leukemia) was 20.4 µM, the TGI (SR leukemia) was 11.1 µM and the TGI (MDA-MB-435) was 4.33 µM.
